Each structure is given as a SMILES string.

Type in all cases: cell-based
The target of assay [1] is T1, 17β-hydroxysteroid dehydrogenase type 1 (17β-HSD type 1) (Homo sapiens, UniProt P14061).
T1 construct: expressed in transfected cells; host or cells: MCF-7
T1 sequence (P14061 1-328): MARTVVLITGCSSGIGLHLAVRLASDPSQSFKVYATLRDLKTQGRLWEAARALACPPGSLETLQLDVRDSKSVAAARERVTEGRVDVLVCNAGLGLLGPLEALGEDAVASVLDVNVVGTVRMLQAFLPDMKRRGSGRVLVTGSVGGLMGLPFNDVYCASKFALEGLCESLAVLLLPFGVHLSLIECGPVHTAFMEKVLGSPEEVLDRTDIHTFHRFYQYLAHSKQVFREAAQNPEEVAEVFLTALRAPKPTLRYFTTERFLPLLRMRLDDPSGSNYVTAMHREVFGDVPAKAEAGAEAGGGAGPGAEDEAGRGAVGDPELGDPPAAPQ
Kind of assay: Inhibition of 17β-HSD type 1 in MCF-7 cells stably expressing the isoenzyme (tritium labeled estrone conversion, HPLC). The conditions noted are these: MCF7, MCF-7 cells expressing 17β-HSD type 1, 2 nM tritium labeled estrone; for inhibition at 1 µM: 1 μM test compound, read-out: % Inhibition HSD1 1 μM; for inhibition at 10 µM: 10 μM test compound, read-out: % Inhibition HSD1 10 μM. A digest of the protocol:
(§1)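 Whole-cell MCF-7 lines, one isoenzyme each; substrate 2 nM ³H-estrone (type 1), ³H-estradiol (type 2) or ³H-androstenedione (type 3) in growth medium + compound at two concentrations. TCA stop, HPLC-radioflow read; % inhibition from reduced conversion vs no-compound control.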

Assay [2] concerns the target T2, 17β-hydroxysteroid dehydrogenase type 3 (17β-HSD type 3) (Homo sapiens, UniProt P37058).
T2 construct: expressed in transfected cells; host or cells: MCF-7
T2 sequence (P37058 1-310): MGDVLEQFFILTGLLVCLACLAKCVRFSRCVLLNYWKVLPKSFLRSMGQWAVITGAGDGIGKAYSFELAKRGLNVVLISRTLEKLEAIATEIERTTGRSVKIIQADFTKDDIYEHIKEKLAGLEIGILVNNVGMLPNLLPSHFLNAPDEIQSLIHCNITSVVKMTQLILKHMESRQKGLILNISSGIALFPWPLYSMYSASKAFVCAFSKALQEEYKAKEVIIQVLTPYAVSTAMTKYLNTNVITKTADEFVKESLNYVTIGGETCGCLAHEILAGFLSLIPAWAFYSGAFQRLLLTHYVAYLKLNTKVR
Description: Inhibition of 17β-HSD type 3 in MCF-7 cells stably expressing the isoenzyme (tritium labeled androstenedione conversion, HPLC). Conditions: MCF7, MCF-7 cells expressing 17β-HSD type 3, 2 nM tritium labeled androstenedione; for inhibition at 1 µM: 1 μM test compound, read-out: % Inhibition HSD3 1 μM; for inhibition at 10 µM: 10 μM test compound, read-out: % Inhibition HSD3 10 μM. The procedure, abridged: as §1

For assay [3], the target named is T3, 17β-hydroxysteroid dehydrogenase type 2 (17β-HSD type 2) (Homo sapiens, UniProt P37059).
T3 construct: expressed in transfected cells; host or cells: MCF-7
T3 sequence (P37059 1-387): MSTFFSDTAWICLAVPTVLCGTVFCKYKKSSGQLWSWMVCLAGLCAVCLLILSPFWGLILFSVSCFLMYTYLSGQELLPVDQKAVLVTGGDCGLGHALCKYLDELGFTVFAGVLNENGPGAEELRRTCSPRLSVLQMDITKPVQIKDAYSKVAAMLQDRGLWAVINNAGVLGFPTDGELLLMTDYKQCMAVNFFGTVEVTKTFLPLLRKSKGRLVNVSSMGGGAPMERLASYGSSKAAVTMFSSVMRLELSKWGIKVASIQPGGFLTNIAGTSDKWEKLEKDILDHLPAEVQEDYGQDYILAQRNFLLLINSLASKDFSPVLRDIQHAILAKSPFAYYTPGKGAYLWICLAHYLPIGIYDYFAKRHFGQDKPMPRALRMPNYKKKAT
Kind of assay: Inhibition of 17β-HSD type 2 in MCF-7 cells stably expressing the isoenzyme (tritium labeled estradiol conversion, HPLC). The conditions noted are these: MCF7, MCF-7 cells expressing 17β-HSD type 2, 2 nM tritium labeled estradiol; for inhibition at 1 µM: 1 μM test compound, read-out: % Inhibition HSD2 1 μM; for inhibition at 10 µM: 10 μM test compound, read-out: % Inhibition HSD2 10 μM. A digest of the protocol:
as §1

As for `CCCCn1c(-c2cc(OC)c(OC)c(O)c2Br)nc2sc3c(O)c(Br)c(C)cc3c2c1=O` [No. 699, 7-Bromo-2-(2-bromo-3-hydroxy4,5-dimethoxyphenyl)-3-butyl-8-hydroxy-6-methyl-3H-benzo[4,5]thieno[2,3-d]pyrimidin-4-one], the inhibition at 1 µM in assay [1] was determined as 5.9%; in assay [2] it was 7.4%; in assay [3], 16.1%. Moreover, the results for the inhibition at 10 µM in assay [1], in assay [2] and in assay [3] were 7.3%, 8.5% and 19.6%, respectively.

In the case of `O=C1c2sc3nc(-c4ccc(Br)s4)n(Cc4ccccc4)c(=O)c3c2CCC1(Br)Br` [No. 66, 3-Benzyl-7,7-dibromo-2-(5-bromothiophen-2-yl)-6,7-dihydro-3H,5H-benzo[4,5]thieno[2,3-d]pyrimidine-4,8-dione], the inhibition at 1 µM in assay [1] was 7.8%; in assay [2], 0.3%; in assay [3] it was 27%. Besides, the inhibition at 10 µM in assay [1] worked out at 8.9%; in assay [2], 7.4%; in assay [3], 37.6%.

Take `COCCn1c(-c2cccs2)nc2sc3c(c2c1=O)CCCC3=O` [No. 75, 3-(2-Methoxyethyl)-2-thiophen-2-yl-6,7-dihydro-3H,5H-benzo[4,5]thieno[2,3-d]pyrimidine-4,8-dione]: the inhibition at 1 µM was determined as 14.5% in assay [1], 5% in assay [2] and 20.2% in assay [3]. Besides, the inhibition at 10 µM in assay [1] stood at 11.9%; in assay [2], 17%; in assay [3], 23.1%.

For `COc1cc(-c2nc3sc4c(O)cccc4c3c(=O)n2Cc2ccccc2)c(Br)c(OC)c1OC` [No. 49, 3-Benzyl-2-(2-bromo-3,4,5-trimethoxyphenyl)-8-hydroxy-3H-benzo[4,5]thieno[2,3-d]pyrimidin-4-one], the inhibition at 1 µM is 24.7% in assay [1], 12.4% in assay [2] and 20.1% in assay [3]. For the same compound, the inhibition at 10 µM in assay [1] amounted to 86.2%; in assay [2] it was 52.6%; in assay [3], 36.9%.

Regarding `COCc1nc2sc3c(c2c(=O)n1-c1ccccc1)CCCC3=O` [No. 37, 2-Methoxymethyl-3-phenyl-6,7-dihydro-3H,5H-benzo[4,5]thieno[2,3-d]pyrimidin-4,8-dione], the inhibition at 1 µM in assay [1] is 9.7%; in assay [2], 9.2%; in assay [3], -0.2%. In addition, the inhibition at 10 µM was determined as 21.4% in assay [1], 22.2% in assay [2] and 9% in assay [3].

Consider `CCCCn1c(-c2cc(OC)c(OC)c(OC)c2)nc2sc3c(c2c1=O)CC(C)CC3=O` (stereo not drawn) [No. 692, 3-Butyl-6-methyl-2-(3,4,5-trimethoxyphenyl)-6,7-dihydro-3H,5H-benzo[4,5]thieno[2,3-d]pyrimidin-4,8-dione], for which the inhibition at 1 µM worked out at 18% in assay [1], 9.8% in assay [2] and 12.7% in assay [3]. Moreover, the values for the inhibition at 10 µM in assay [1], in assay [2] and in assay [3] were 28.6%, 35% and 21%, respectively.

`COc1cc(-c2nc3sc4c(c3c(=O)n2Cc2ccccc2)CCC(C=O)=C4Oc2ccccc2)cc(OC)c1OC` [No. 4, 3-Benzyl-4-oxo-8-phenoxy-2-(3,4,5-trimethoxyphenyl)-3,4,5,6-tetrahydro-benzo[4,5]thieno[2,3-d]pyrimidine-7-carbaldehyde]: the inhibition at 1 µM in assay [1] is 20.1%; in assay [2], -7.2%; in assay [3] it was -4.3%. The inhibition at 10 µM was determined as 30.7% in assay [1], 6.5% in assay [2] and 20.1% in assay [3].

For `COc1cc(-c2nc3sc4c(c3c(=O)n2Cc2ccccc2)CC(C)CC4=O)cc(OC)c1OC` (stereo not drawn) [No. 688, 3-Benzyl-6-methyl-2-(3,4,5-trimethoxyphenyl)-6,7-dihydro-3H,5H-benzo[4,5]thieno[2,3-d]pyrimidin-4,8-dione], the inhibition at 1 µM amounted to 21.5% in assay [1], 14.4% in assay [2] and 25.4% in assay [3]. The inhibition at 10 µM was 21.6% in assay [1], 22.3% in assay [2] and 14.2% in assay [3].

Regarding `O=c1c2c3c(sc2nc(-c2cc(O)c(O)c(O)c2)n1-c1ccccc1)CCCC3` [No. 43, 3-Phenyl-2-(3,4,5-trihydroxyphenyl)-5,6,7,8-tetrahydro-3H-benzo[4,5]thieno[2,3-d]pyrimidin-4-one], the inhibition at 1 µM in assay [1] was 12%; in assay [2] it was -2.5%; in assay [3] it was 18%. For the same compound, the inhibition at 10 µM was 23.8% in assay [1], -0.9% in assay [2] and 15% in assay [3].

With `O=C1c2sc3nc(-c4ccccc4)n(Cc4ccccc4)c(=O)c3c2CCC1Br` (stereo not drawn) [No. 58, 3-Benzyl-7-bromo-2-phenyl-6,7-dihydro-3H,5H-benzo[4,5]thieno[2,3-d]pyrimidine-4,8-dione], the results for the inhibition at 1 µM in assay [1], in assay [2] and in assay [3] were 25.5%, 16% and 22.5%, respectively. In addition, the values for the inhibition at 10 µM in assay [1], in assay [2] and in assay [3] were 54.9%, 39.4% and 33.9%, respectively.

With `CCCCn1c(-c2cc(OC)c(OC)c(OC)c2)nc2sc3c(c2c1=O)CCC(Br)C3=O` (stereo not drawn) [No. 87, 7-Bromo-3-butyl-2-(3,4,5-trimethoxyphenyl)-6,7-dihydro-3H,5H-benzo[4,5]thieno[2,3-d]pyrimidine-4,8-dione], the inhibition at 1 µM in assay [1] was found to be 26.8%; in assay [2], 13%; in assay [3], 24.6%. For the same compound, the figures for the inhibition at 10 µM in assay [1], in assay [2] and in assay [3] were 67.4%, 31.9% and 23.4%, respectively.

Consider `CC(=O)OCc1nc2sc3c(c2c(=O)n1Cc1ccccc1)CCCC3` [No. 29, Acetic acid 3-benzyl-4-oxo-3,4,5,6,7,8-hexahydro-benzo[4,5]thieno[2,3-d]pyrimidin-2-ylmethyl ester], for which the values for the inhibition at 1 µM in assay [1], in assay [2] and in assay [3] were 9%, 16.9% and 8.5%, respectively. For the same compound, the results for the inhibition at 10 µM in assay [1], in assay [2] and in assay [3] were 15.5%, 28.4% and 21.1%, respectively.

On to `CCCc1nc2sc3c(O)cccc3c2c(=O)n1Cc1ccc(Br)o1` [No. 105, 3-(5-Bromofuran-2-ylmethyl)-8-hydroxy-2-propyl-3H-benzo[4,5]thieno[2,3-d]pyrimidin-4-one], for which the figures for the inhibition at 1 µM in assay [1], in assay [2] and in assay [3] were 29.8%, 17.7% and 50.7%, respectively. For the same compound, the inhibition at 10 µM in assay [1] came to 61.2%; in assay [2], 67.3%; in assay [3] it was 85.9%.

In the case of `COc1cc(-c2nc3sc4c(c3c(=O)n2Cc2ccccc2)CC(C)C(Br)C4=O)c(Br)c(OC)c1OC` (stereo not drawn) [No. 689, 3-Benzyl-7-bromo-6-methyl-2-(2-bromo-3,4,5-trimethoxyphenyl)-6,7-dihydro-3H-benzo[4,5]thieno[2,3-d]pyrimidin-4,8-dione], the inhibition at 1 µM in assay [1] is 7.7%; in assay [2] it was -2.4%; in assay [3], -3%. In addition, the inhibition at 10 µM in assay [1] came to 5.7%; in assay [2], 17.4%; in assay [3] it was 5.7%.

The term inhibition denotes the drop in the measured response relative to a control, in per cent.

These data come from patent US7524853B2 (Solvay Pharmaceuticals B.V., priority 2003, dated 2009).
